Kd data for 52 molecules are collected here from BindingDB's records for doi:10.1021/jm011007+ (University of Perugia, 2002).

The target in test [1] is Sodium-dependent dopamine transporter (Homo sapiens, UniProt Q01959). In words: Inhibition of radioligand [125I]RTI-55 binding to human Dopamine transporter in clonal cells.
The target of test [2] is Sodium-dependent serotonin transporter (Homo sapiens, UniProt P31645). In words: Inhibition of [125I]RTI-55 binding to human SERT in clonal cells.

Values joined by “and” are separate entries in the source; they are usually repeats but may differ in a detail not shown here. Equal entries are not always repeated.

Sodium-dependent dopamine transporter, sequence (Q01959 whole entry): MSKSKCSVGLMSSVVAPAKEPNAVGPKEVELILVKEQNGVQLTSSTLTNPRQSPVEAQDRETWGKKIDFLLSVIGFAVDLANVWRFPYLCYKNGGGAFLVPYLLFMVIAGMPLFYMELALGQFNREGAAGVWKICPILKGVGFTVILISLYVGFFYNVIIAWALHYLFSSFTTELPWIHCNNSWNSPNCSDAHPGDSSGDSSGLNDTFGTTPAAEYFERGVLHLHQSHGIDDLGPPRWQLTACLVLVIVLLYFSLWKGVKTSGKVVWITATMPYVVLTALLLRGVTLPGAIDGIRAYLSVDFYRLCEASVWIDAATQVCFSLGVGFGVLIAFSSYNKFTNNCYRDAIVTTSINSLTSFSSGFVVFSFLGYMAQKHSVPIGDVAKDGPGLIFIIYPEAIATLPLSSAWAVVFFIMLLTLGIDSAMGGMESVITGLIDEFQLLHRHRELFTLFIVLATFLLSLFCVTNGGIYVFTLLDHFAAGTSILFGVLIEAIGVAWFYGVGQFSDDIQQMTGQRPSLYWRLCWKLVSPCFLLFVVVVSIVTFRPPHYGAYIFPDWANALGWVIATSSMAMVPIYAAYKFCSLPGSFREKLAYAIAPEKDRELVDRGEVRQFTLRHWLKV
Sodium-dependent serotonin transporter, sequence (P31645 whole entry): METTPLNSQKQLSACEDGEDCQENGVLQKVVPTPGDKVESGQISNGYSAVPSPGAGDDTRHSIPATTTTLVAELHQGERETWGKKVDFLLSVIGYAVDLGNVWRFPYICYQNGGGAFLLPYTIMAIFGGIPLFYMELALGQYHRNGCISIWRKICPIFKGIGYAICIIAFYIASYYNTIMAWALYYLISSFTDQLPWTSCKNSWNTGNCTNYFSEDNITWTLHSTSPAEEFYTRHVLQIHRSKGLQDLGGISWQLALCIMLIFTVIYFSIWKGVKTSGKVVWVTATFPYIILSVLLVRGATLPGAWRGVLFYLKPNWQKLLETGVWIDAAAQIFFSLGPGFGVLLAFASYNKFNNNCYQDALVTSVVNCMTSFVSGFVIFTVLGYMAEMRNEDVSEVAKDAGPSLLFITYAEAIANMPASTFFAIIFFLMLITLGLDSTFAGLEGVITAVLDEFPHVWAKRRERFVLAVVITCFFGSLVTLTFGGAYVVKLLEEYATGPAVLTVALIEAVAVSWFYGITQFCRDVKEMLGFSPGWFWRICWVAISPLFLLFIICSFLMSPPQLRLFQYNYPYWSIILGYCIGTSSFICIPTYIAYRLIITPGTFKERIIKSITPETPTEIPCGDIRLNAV

Take `O=C(CCCN1CCN(CCCc2ccccc2)CC1)N(Cc1ccccc1)c1ccccc1`: the dissociation constant Kd came out at 28 nM in test [1] and 525 nM in test [2].
For `Cc1ccc(/C=C/CN2CCN(CCOC(c3ccc(F)cc3)c3ccc(F)cc3)CC2)cc1`, in that order: 48 nM and 661 nM.
The like results for `Fc1ccc(CN(CCN2CCN(CCCc3ccccc3)CC2)c2ccccn2)cc1` were, in that order, 65 nM and 229 nM.
With `COc1ccc(CN(CCN2CCN(CCCc3ccccc3)CC2)c2ccccn2)cc1`, the Kd in test [1] came out at 219 nM; in test [2] it was 162 nM.
For `Fc1ccc(CN(CCCN2CCN(CCCc3ccccc3)CC2)c2ccc(F)cc2)cc1`, in that order: 14 nM and 331 nM.
The like results for `O=C(/C=C/c1ccccc1Cl)N1CCN(CCOC(c2ccc(F)cc2)c2ccc(F)cc2)CC1` were, in that order, 724 nM and 170 nM.
Take `COc1ccc(OC)c(/C=C/CN2CCN(CCOC(c3ccc(F)cc3)c3ccc(F)cc3)CC2)c1`: the equilibrium dissociation constant (Kd) came out at 3.8 nM in test [1] and 182 nM in test [2].
As for `O=C(/C=C/c1c(Cl)cccc1Cl)N1CCN(CCOC(c2ccc(F)cc2)c2ccc(F)cc2)CC1`, the Kd in test [1] amounted to 1510 nM; in test [2], 209 nM.
Regarding `CN(CCc1ccccc1)CCN1CCN(CCCc2ccccc2)CC1`, the results for the dissociation constant (Kd) in test [1] and in test [2] were 550 nM and 2630 nM, respectively.
The like results for `Fc1ccc(C(OCCN2CCN(C/C=C/c3ccccc3)CC2)c2ccc(Cl)cc2Cl)cc1` (stereo unspecified) were, in that order, 66 nM and 525 nM.
The like results for `Cc1ccc(C(OCCN2CCN(C/C=C/c3ccccc3)CC2)c2ccccc2)cc1` (stereo unspecified) were, in that order, 112 nM and 1120 nM.
For `COc1ccc(N(CCN2CCN(CCCc3ccccc3)CC2)Cc2ccccc2)cc1`, in that order: 912 nM and 257 nM.
`COc1ccc(OC)c(/C=C/C(=O)N2CCN(CCOC(c3ccc(F)cc3)c3ccc(F)cc3)CC2)c1`: the Kd in test [1] stood at 562 nM; in test [2], 204 nM.
The like results for `Fc1ccc(CCCN2CCN(CCOC(c3ccccc3)c3ccc(F)cc3)CC2)cc1` (stereo unspecified) were, in that order, 31 nM and 468 nM.
For `Cc1ccc(/C=C/C(=O)N2CCN(CCOC(c3ccc(F)cc3)c3ccc(F)cc3)CC2)cc1`, in that order: 794 nM and 195 nM.
For `Clc1ccc(C(OCCN2CCN(C/C=C/c3ccccc3)CC2)c2ccc(Cl)cc2)cc1`, in that order: 38 nM and 331 nM.
In the case of `Brc1ccc(CN(CCN2CCN(CCCc3ccccc3)CC2)c2ccc(Br)cc2)cc1`, the dissociation constant (Kd) was 977 nM in test [1] and 1620 nM in test [2].
Turning to `c1ccc(CCCN2CCN(CCN(Cc3ccccc3)c3ccccn3)CC2)cc1`, the figures for the Kd in test [1] and in test [2] were 91 nM and 525 nM, respectively.
With `Fc1ccc(C(OCCN2CCN(CCCc3ccc(Cl)cc3)CC2)c2ccc(F)cc2)cc1`, the equilibrium dissociation constant (Kd) in test [1] came out at 8.1 nM; in test [2], 155 nM.
The like results for `Fc1ccc(C(OCCN2CCN(C/C=C/Cc3ccccc3)CC2)c2ccc(F)cc2)cc1` were, in that order, 5.1 nM and 72 nM.
Take `Fc1ccc(/C=C/CN2CCN(CCOC(c3ccc(F)cc3)c3ccc(F)cc3)CC2)cc1`: the Kd in test [1] was 3.9 nM; in test [2], 229 nM.
The like results for `O=C(CCCN1CCN(CCCc2ccccc2)CC1)N(Cc1ccccc1)c1ccccn1` were, in that order, 562 nM and 1320 nM.
As to `c1ccc(CCCN2CCN(CCN(Cc3ccccc3)c3ccccc3)CC2)cc1`, the Kd in test [1] turned out to be 219 nM; in test [2], 1200 nM.
Regarding `Fc1ccc(/C=C/CN2CCN(CCOC(c3ccccc3)c3ccc(F)cc3)CC2)cc1` (stereo unspecified), the Kd was determined as 23 nM in test [1] and 200 nM in test [2].
For `Fc1ccc(CN(CCN2CCN(CCCc3ccccc3)CC2)c2ccc(F)cc2)cc1`, in that order: 52 nM and 269 nM.
Regarding `COc1ccc(/C=C/CN2CCN(CCOC(c3ccc(F)cc3)c3ccc(F)cc3)CC2)cc1` [1-{2-[Bis-(4-fluoro-phenyl)-methoxy]-ethyl}-4-[(E)-3-(4-methoxy-phenyl)-allyl]-piperazine], the Kd in test [1] amounted to 65 nM; in test [2] it was 372 nM.
The like results for `Fc1ccc(CCCN2CCN(CCOC(c3ccccc3)c3ccccc3)CC2)cc1` were, in that order, 40 nM and 1820 nM.
With `COc1ccc(CN(CCCN2CCN(CCCc3ccccc3)CC2)c2ccccn2)cc1`, the results for the dissociation constant (Kd) in test [1] and in test [2] were 16 nM and 59 nM, respectively.
Take `Fc1ccc(C(OCCN2CCN(C/C=C/c3ccc(Cl)cc3)CC2)c2ccc(F)cc2)cc1`: the figures for the Kd in test [1] and in test [2] were 22 nM and 813 nM, respectively.
Regarding `COc1ccc(C(OCCN2CCN(C/C=C/c3ccccc3)CC2)c2ccccc2)cc1` (stereo unspecified), the dissociation constant (Kd) in test [2] stood at 692 nM.
Turning to `Fc1ccc(/C=C/CN2CCN(CCOC(c3ccccc3)c3ccccc3)CC2)cc1`, the figures for the equilibrium dissociation constant (Kd) in test [1] and in test [2] were 16 nM and 1320 nM, respectively.
As to `c1ccc(CCCN2CCN(CCCN(Cc3ccccc3)c3ccccn3)CC2)cc1`, the Kd worked out at 107 nM in test [1] and 2290 nM in test [2].
In the case of `c1ccc(CCCN2CCN(CCCN(Cc3ccccc3)c3ccccc3)CC2)cc1`, the dissociation constant (Kd) is 10 nM in test [1]; 759 nM and 758 nM in test [2].
As for `C(=C\c1ccccc1)/CN1CCN(CCN(Cc2ccccc2)c2ccccc2)CC1`, the results for the Kd in test [1] and in test [2] were 447 nM and 603 nM, respectively.
The like results for `O=C(CN1CCN(CCCc2ccccc2)CC1)N(Cc1ccccc1)c1ccccc1` were, in that order, 1070 nM and 2880 nM.
For `c1ccc(CCCN2CCN(CCCCN(Cc3ccccc3)c3ccccc3)CC2)cc1`, in that order: 14 nM and 132 nM.
With `c1ccc(CCCN2CCN(CCCCCN(Cc3ccccc3)c3ccccc3)CC2)cc1`, the Kd in test [1] was determined as 32 nM; in test [2] it was 234 nM.
For `COc1ccc(/C=C/C(=O)N2CCN(CCOC(c3ccc(F)cc3)c3ccc(F)cc3)CC2)cc1`, in that order: 490 nM and 141 nM.
With `COc1ccc(N(CCN2CCN(C/C=C/c3ccccc3)CC2)Cc2ccccc2)cc1`, the dissociation constant (Kd) in test [2] worked out at 282 nM.
For the molecule `Fc1ccc(C(OCCN2CCN(C/C=C/c3ccccc3)CC2)c2ccccc2)cc1` (stereo unspecified), the Kd in test [1] stood at 33 nM; in test [2], 214 nM.
The like results for `Fc1ccc(CCCN2CCN(CCOC(c3ccc(F)cc3)c3ccc(F)cc3)CC2)cc1` were, in that order, 5.6 nM and 363 nM.
For `Fc1ccc(C(OCCN2CCN(Cc3ccccc3)CC2)c2ccc(F)cc2)cc1`, in that order: 98 nM and 182 nM.
In the case of `C(=C\c1ccccc1)/CN1CCN(CCN(Cc2ccccc2)c2ccccn2)CC1`, the dissociation constant (Kd) in test [1] came out at 1000 nM; in test [2], 676 nM.
In the case of `Fc1ccc(C(OCCN2CCN(C/C=C/c3ccccc3)CC2)c2ccc(Cl)cc2)cc1` (stereo unspecified), the equilibrium dissociation constant (Kd) in test [1] is 3.9 nM; in test [2], 191 nM.
The like results for `COc1ccc(CN(CCN2CCN(C/C=C/c3ccccc3)CC2)c2ccccn2)cc1` were, in that order, 2190 nM and 229 nM.
The like results for `O=C(CCCCN1CCN(CCCc2ccccc2)CC1)N(Cc1ccccc1)c1ccccc1` were, in that order, 58 nM and 204 nM.
The like results for `O=C(/C=C/c1ccc(Cl)cc1)N1CCN(CCOC(c2ccc(F)cc2)c2ccc(F)cc2)CC1` were, in that order, 427 nM and 72 nM.
In the case of `Cc1ccc(CN(CCN2CCN(CCCc3ccccc3)CC2)c2ccccc2)cc1`, the dissociation constant Kd came out at 427 nM in test [1] and 813 nM in test [2].
For the molecule `Fc1ccc(C(OCCN2CCN(C/C=C/c3ccccc3)CC2)c2ccc(F)cc2)cc1`, in test [2], the equilibrium dissociation constant (Kd) is 954 nM and 363 nM.
Consider `COc1cccc(C(OCCN2CCN(C/C=C/c3ccccc3)CC2)c2cccc(Br)c2)c1` (stereo unspecified), for which the values for the equilibrium dissociation constant (Kd) in test [1] and in test [2] were 132 nM and 741 nM, respectively.
The like results for `Fc1ccc(C(OCCN2CCN(CCCc3ccccc3)CC2)c2ccccc2)cc1` (stereo unspecified) were, in that order, 20 nM and 617 nM.
Consider `Fc1ccc(CN(CCCN2CCN(CCCc3ccccc3)CC2)c2ccccn2)cc1`, for which the dissociation constant (Kd) in test [1] came to 11 nM; in test [2] it was 282 nM.

For orientation: Kd means the concentration at which binding is half-saturated. The low end stands for higher affinity, the high end for lower affinity.
